According to PubChem BioAssay (NCI):
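Interpolation was linear, between the two tested concentrations surrounding the appropriate level; five concentrations were tested over 48 hours in 96-well plates. The concentration for 50% growth inhibition is given as GI50. TGI marks complete inhibition of growth.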

How the values were obtained:
Test in all cases: growth of human tumour cells (NCI), 48 h
786-0 renal = tested on: 786-0 renal
A498 renal = tested on: A498 renal
A549 NSCLC = tested on: A549 NSCLC
ACHN renal = tested on: ACHN renal
BT-549 breast = tested on: BT-549 breast
CAKI-1 renal = tested on: CAKI-1 renal
CCRF-CEM leukemia = tested on: CCRF-CEM leukemia
COLO 205 colon = tested on: COLO 205 colon
DU-145 prostate = tested on: DU-145 prostate
EKVX NSCLC = tested on: EKVX NSCLC
HCT-116 colon = tested on: HCT-116 colon
HCT-15 colon = tested on: HCT-15 colon
HL-60(TB) leukemia = tested on: HL-60(TB) leukemia
HOP-62 NSCLC = tested on: HOP-62 NSCLC
HOP-92 NSCLC = tested on: HOP-92 NSCLC
HS 578T breast = tested on: HS 578T breast
HT29 colon = tested on: HT29 colon
IGROV1 ovarian = tested on: IGROV1 ovarian
K-562 leukemia = tested on: K-562 leukemia
KM12 colon = tested on: KM12 colon
LOX IMVI melanoma = tested on: LOX IMVI melanoma
M14 melanoma = tested on: M14 melanoma
MALME-3M melanoma = tested on: MALME-3M melanoma
MCF7 breast = tested on: MCF7 breast
MDA-MB-231 breast = tested on: MDA-MB-231 breast
MDA-MB-435 = tested on: MDA-MB-435
MOLT-4 leukemia = tested on: MOLT-4 leukemia
NCI-H226 lung = tested on: NCI-H226 lung
NCI-H23 lung = tested on: NCI-H23 lung
NCI-H460 lung = tested on: NCI-H460 lung
NCI-H522 lung = tested on: NCI-H522 lung
NCI/ADR-RES ovarian = tested on: NCI/ADR-RES ovarian
OVCAR-3 ovarian = tested on: OVCAR-3 ovarian
OVCAR-4 ovarian = tested on: OVCAR-4 ovarian
OVCAR-5 ovarian = tested on: OVCAR-5 ovarian
OVCAR-8 ovarian = tested on: OVCAR-8 ovarian
PC-3 prostate = tested on: PC-3 prostate
RPMI-8226 leukemia = tested on: RPMI-8226 leukemia
RXF 393 renal = tested on: RXF 393 renal
SF-268 CNS = tested on: SF-268 CNS
SF-295 CNS = tested on: SF-295 CNS
SF-539 CNS = tested on: SF-539 CNS
SK-MEL-2 melanoma = tested on: SK-MEL-2 melanoma
SK-MEL-28 melanoma = tested on: SK-MEL-28 melanoma
SK-MEL-5 melanoma = tested on: SK-MEL-5 melanoma
SK-OV-3 ovarian = tested on: SK-OV-3 ovarian
SN12C renal = tested on: SN12C renal
SNB-19 CNS = tested on: SNB-19 CNS
SNB-75 CNS = tested on: SNB-75 CNS
SR leukemia = tested on: SR leukemia
SW-620 colon = tested on: SW-620 colon
T-47D breast = tested on: T-47D breast
TK-10 renal = tested on: TK-10 renal
U251 CNS = tested on: U251 CNS
UACC-257 melanoma = tested on: UACC-257 melanoma
UACC-62 melanoma = tested on: UACC-62 melanoma
HCC-2998 colon = tested on: HCC-2998 colon
UO-31 renal = tested on: UO-31 renal

## O=C(O)C1CC[N-]CC1.O=C(O)C1CC[N-]CC1.[NH2-].[NH2-].[Pt+4]
786-0 renal
  GI50: > 100 µM
  TGI: > 100 µM
A498 renal
  GI50: > 100 µM
  TGI: > 100 µM
A549 NSCLC
  GI50: > 100 µM
  TGI: > 100 µM
ACHN renal
  GI50: > 100 µM
  TGI: > 100 µM
BT-549 breast
  GI50: > 100 µM
  TGI: > 100 µM
CAKI-1 renal
  GI50: > 100 µM
  TGI: > 100 µM
CCRF-CEM leukemia
  GI50: > 100 µM
  TGI: > 100 µM
COLO 205 colon
  GI50: > 100 µM
  TGI: > 100 µM
DU-145 prostate
  GI50: > 100 µM
  TGI: > 100 µM
EKVX NSCLC
  GI50: > 100 µM
  TGI: > 100 µM
HCT-116 colon
  GI50: > 100 µM
  TGI: > 100 µM
HCT-15 colon
  GI50: > 100 µM
  TGI: > 100 µM
HL-60(TB) leukemia
  GI50: > 100 µM
  TGI: > 100 µM
HOP-62 NSCLC
  GI50: > 100 µM
  TGI: > 100 µM
HOP-92 NSCLC
  GI50: > 100 µM
  TGI: > 100 µM
HS 578T breast
  GI50: > 100 µM
  TGI: > 100 µM
HT29 colon
  GI50: > 100 µM
  TGI: > 100 µM
IGROV1 ovarian
  GI50: > 100 µM
  TGI: > 100 µM
K-562 leukemia
  GI50: > 100 µM
  TGI: > 100 µM
KM12 colon
  GI50: > 100 µM
  TGI: > 100 µM
LOX IMVI melanoma
  GI50: > 100 µM
  TGI: > 100 µM
M14 melanoma
  GI50: > 100 µM
  TGI: > 100 µM
MALME-3M melanoma
  GI50: > 100 µM
  TGI: > 100 µM
MCF7 breast
  GI50: > 100 µM
  TGI: > 100 µM
MDA-MB-231 breast
  GI50: > 100 µM
  TGI: > 100 µM
MDA-MB-435
  GI50: > 100 µM
  TGI: > 100 µM
MOLT-4 leukemia
  GI50: > 100 µM
  TGI: > 100 µM
NCI-H226 lung
  GI50: > 100 µM
  TGI: > 100 µM
NCI-H23 lung
  GI50: > 100 µM
  TGI: > 100 µM
NCI-H460 lung
  GI50: > 100 µM
  TGI: > 100 µM
NCI-H522 lung
  GI50: > 100 µM
  TGI: > 100 µM
NCI/ADR-RES ovarian
  GI50: > 100 µM
  TGI: > 100 µM
OVCAR-3 ovarian
  GI50: > 100 µM
  TGI: > 100 µM
OVCAR-4 ovarian
  GI50: > 100 µM
  TGI: > 100 µM
OVCAR-5 ovarian
  GI50: > 100 µM
  TGI: > 100 µM
OVCAR-8 ovarian
  GI50: > 100 µM
  TGI: > 100 µM
PC-3 prostate
  GI50: > 100 µM
  TGI: > 100 µM
RPMI-8226 leukemia
  GI50: > 100 µM
  TGI: > 100 µM
RXF 393 renal
  GI50: > 100 µM
  TGI: > 100 µM
SF-268 CNS
  GI50: > 100 µM
  TGI: > 100 µM
SF-295 CNS
  GI50: > 100 µM
  TGI: > 100 µM
SF-539 CNS
  GI50: > 100 µM
  TGI: > 100 µM
SK-MEL-2 melanoma
  GI50: > 100 µM
  TGI: > 100 µM
SK-MEL-28 melanoma
  GI50: > 100 µM
  TGI: > 100 µM
SK-MEL-5 melanoma
  GI50: > 100 µM
  TGI: > 100 µM
SK-OV-3 ovarian
  GI50: > 100 µM
  TGI: > 100 µM
SN12C renal
  GI50: > 100 µM
  TGI: > 100 µM
SNB-19 CNS
  GI50: > 100 µM
  TGI: > 100 µM
SNB-75 CNS
  GI50: > 100 µM
  TGI: > 100 µM
SR leukemia
  GI50: > 100 µM
  TGI: > 100 µM
SW-620 colon
  GI50: > 100 µM
  TGI: > 100 µM
T-47D breast
  GI50: > 100 µM
  TGI: > 100 µM
TK-10 renal
  GI50: > 100 µM
  TGI: > 100 µM
U251 CNS
  GI50: > 100 µM
  TGI: > 100 µM
UACC-257 melanoma
  GI50: > 100 µM
  TGI: > 100 µM
UACC-62 melanoma
  GI50: > 100 µM
  TGI: > 100 µM

## Fc1ccc(C2CC(c3cccc(Nc4ccncc4)c3)=NN2c2ccccc2)cc1 (centres undefined)
A498 renal
  GI50: 0.446 µM
  TGI: 6.92 µM
ACHN renal
  GI50: 1.71 µM
  TGI: 3.11 µM
BT-549 breast
  GI50: 1.68 µM
  TGI: 3.46 µM
CAKI-1 renal
  GI50: 1.6 µM
  TGI: 3.02 µM
CCRF-CEM leukemia
  GI50: 3.22 µM
  TGI: 10.2 µM
COLO 205 colon
  GI50: 2.35 µM
  TGI: 4.91 µM
DU-145 prostate
  GI50: 1.98 µM
  TGI: 3.91 µM
EKVX NSCLC
  GI50: 1.99 µM
  TGI: 5.71 µM
HCC-2998 colon
  GI50: 1.63 µM
  TGI: 3 µM
HCT-116 colon
  GI50: 1.49 µM
  TGI: 3.12 µM
HCT-15 colon
  GI50: 1.68 µM
  TGI: 3.49 µM
HL-60(TB) leukemia
  GI50: 2.08 µM
  TGI: 4.49 µM
HOP-92 NSCLC
  GI50: 1.33 µM
  TGI: 2.73 µM
HS 578T breast
  GI50: 1.81 µM
  TGI: 3.8 µM
HT29 colon
  GI50: 2.13 µM
  TGI: 5.09 µM
IGROV1 ovarian
  GI50: 1.8 µM
  TGI: 3.49 µM
K-562 leukemia
  GI50: 2.42 µM
  TGI: 6.86 µM
KM12 colon
  GI50: 1.63 µM
  TGI: 3.07 µM
LOX IMVI melanoma
  GI50: 1.66 µM
  TGI: 3.02 µM
M14 melanoma
  GI50: 1.87 µM
  TGI: 3.71 µM
MALME-3M melanoma
  GI50: 1.6 µM
  TGI: 3.16 µM
MCF7 breast
  GI50: 1.74 µM
  TGI: 3.48 µM
MDA-MB-231 breast
  GI50: 1.57 µM
  TGI: 2.95 µM
MDA-MB-435
  GI50: 1.63 µM
  TGI: 3.14 µM
MOLT-4 leukemia
  GI50: 2.47 µM
  TGI: 5.81 µM
NCI-H226 lung
  GI50: 2.48 µM
  TGI: 8.78 µM
NCI-H23 lung
  GI50: 1.75 µM
  TGI: 3.33 µM
NCI-H460 lung
  GI50: 1.76 µM
  TGI: 3.19 µM
NCI-H522 lung
  GI50: 1.81 µM
  TGI: 3.98 µM
NCI/ADR-RES ovarian
  GI50: 1.65 µM
  TGI: 3.13 µM
OVCAR-3 ovarian
  GI50: 1.75 µM
  TGI: 3.24 µM
OVCAR-4 ovarian
  GI50: 1.61 µM
  TGI: 3.07 µM
OVCAR-5 ovarian
  GI50: 2.18 µM
  TGI: 5.27 µM
PC-3 prostate
  GI50: 1.58 µM
  TGI: 3.18 µM
SF-268 CNS
  GI50: 1.75 µM
  TGI: 3.4 µM
SF-295 CNS
  GI50: 1.74 µM
  TGI: 3.16 µM
SF-539 CNS
  GI50: 1.65 µM
  TGI: 3.06 µM
SK-MEL-28 melanoma
  GI50: 1.76 µM
  TGI: 3.35 µM
SK-MEL-5 melanoma
  GI50: 1.78 µM
  TGI: 3.22 µM
SK-OV-3 ovarian
  GI50: 5.7 µM
  TGI: 19.9 µM
SN12C renal
  GI50: 1.71 µM
  TGI: 3.21 µM
SNB-19 CNS
  GI50: 1.61 µM
  TGI: 3.04 µM
SNB-75 CNS
  GI50: 1.29 µM
  TGI: 2.87 µM
SR leukemia
  GI50: 2.17 µM
  TGI: 5.67 µM
SW-620 colon
  GI50: 1.69 µM
  TGI: 3.21 µM
T-47D breast
  GI50: 2.04 µM
  TGI: 4.62 µM
TK-10 renal
  GI50: 1.99 µM
  TGI: 3.75 µM
U251 CNS
  GI50: 1.84 µM
  TGI: 3.64 µM
UACC-257 melanoma
  GI50: 2.09 µM
  TGI: 4.31 µM
UACC-62 melanoma
  GI50: 1.76 µM
  TGI: 3.24 µM
UO-31 renal
  GI50: 1.45 µM
  TGI: 2.86 µM
